The values that follow come from patent US10940139B2, “Compounds that interact with the Ras superfamily for the treatment of cancers, inflammatory diseases, rasopathies, and fibrotic disease” (Shy Therapeutics LLC, priority 2017, dated 2021).

The subject of test [1] is TNFα production in RAW 264.7 macrophage cell line. Description: Mouse TNF alpha quantification assay (LPS-stimulated macrophages, ELISA). The format is cell-based. The following applies: RAW264.7, RAW 264.7 murine leukemia virus transformed macrophage cell lines, LPS stimulation, read-out: TNF-α % Inhibition at 30 μM.
For test [2], the system named is IL6 production in RAW 264.7 macrophage cell line. As to the kind of experiment: Mouse IL6 quantification assay (LPS-stimulated macrophages, ELISA). The format is cell-based. The note with it: RAW264.7, RAW 264.7 murine leukemia virus transformed macrophage cell lines, LPS stimulation, read-out: IL-6 % Inhibition at 30 μM. (An ELISA detects its analyte on a solid surface through an enzyme-linked reagent.)

The term inhibition denotes the change of the read-out against control, counted positive when it falls. On to `Cc1nc(-c2ccccn2)nc(O)c1CCC(=O)Nc1cccc(OCC(=O)N2CCCC2)c1` [drawing 2036], for which the inhibition at 30 µM was 1 to 25% in test [1] and 0% in test [2].
In the same order, the values of `Oc1nc(-c2ccccn2)nc2c1c(-c1ccccc1)nn2-c1ccccn1` [drawing 2366] are 1 to 25% and 51 to 75%.
In the same order, the values of `O=C(c1csc2c(O)nc(-c3ccccn3)nc12)N1CCc2ccccc2CC1` [drawing 2116] are 0% and 51 to 75%.
The corresponding values for `O=C(c1ccn(-c2ccccc2)n1)N1CCCc2c(O)nc(-c3ccccn3)nc21` [drawing 2076] are 26 to 50% and 76 to 100%.
Take `Cc1c(C(=O)Nc2nnc(-c3ccccn3)[nH]2)oc2c1C(=O)CCC2` [drawing 1946]: the inhibition at 30 µM in test [1] was 0%; in test [2], 1 to 25%.
As for `Cc1ccccc1N1CCN(C(=O)c2csc3c(O)nc(-c4ccccn4)nc23)CC1` [drawing 2168], the inhibition at 30 µM in test [1] fell in the range of 1 to 25%; in test [2], 51 to 75%.
The corresponding values for `CCOc1cc(S(=O)(=O)N(Cc2ccccc2)Cc2ccccc2)c(OCC)cc1C` [drawing 2059] are 1 to 25% and 1 to 25%.
In the same order, the values of `O=C(NCCc1ccncn1)c1csc2nc(-c3ccccn3)nc(N3CCOCC3)c12` [drawing 2321] are 0% and 1 to 25%.
On to `Oc1nc(-c2ccccn2)nc2c1CCCN2` [drawing 2070], for which the inhibition at 30 µM in test [1] lay in the range of 1 to 25%; in test [2], 26 to 50%.
For `COc1cc(-c2csc3c(O)nc(-c4ccccn4)nc23)cnc1C(F)(F)F` [drawing 2276], the inhibition at 30 µM in test [1] was in the range of 1 to 25%; in test [2], 51 to 75%.
The corresponding values for `Cc1sc2c(O)nc(-c3nccn3C)nc2c1-c1ccc(OC(C)C)c(F)c1` [drawing 2437] are 0% and 51 to 75%.
In the same order, the values of `Cc1cncc(-c2csc3c(O)nc(-c4ccccn4)nc23)c1` [drawing 2305] are 1 to 25% and 76 to 100%.
`COC(=O)C(C)CN(Cc1ccccc1)c1nc(C(F)(F)F)ccc1C#N` (stereo not shown) [drawing 2065]: the inhibition at 30 µM in test [1] is 0%; in test [2], 26 to 50%.
The corresponding values for `Oc1nc(-c2ccccn2)nc2c(-c3ccsc3)csc12` [drawing 2267] are 76 to 100% and 76 to 100%.
Regarding `Nc1nc(O)c2scc(-c3ccccc3)c2n1` [drawing 2118], the values for the inhibition at 30 µM in test [1] and in test [2] were 0% and 1 to 25%, respectively.
The corresponding values for `COc1cc2c(cc1OC)CCN(C(=O)c1csc3c(O)nc(N)nc13)CC2` [drawing 2099] are 1 to 25% and 1 to 25%.
The corresponding values for `c1ccc(-c2csc3nc(-c4ccccn4)nc(N4CCN(CC5CCCO5)CC4)c23)cc1` (stereo not shown) [drawing 2140] are 26 to 50% and 51 to 75%.
The corresponding values for `Nc1nc(O)c2sc(-c3cccc(C(=O)N4CCC(O)C4)c3)cc2n1` (stereo not shown) [drawing 2370] are 0% and 0%.
On to `COc1cc(OC)cc(N2CCN(C(=O)c3csc4c(O)nc(-c5ccccn5)nc34)CC2)c1` [drawing 2183], for which the inhibition at 30 µM lay within 1 to 25% in test [1] and 26 to 50% in test [2].
With `COc1ccc(-c2csc3c(O)nc(-c4nccn4C)nc23)cn1` [drawing 2440], the inhibition at 30 µM in test [1] and in test [2] was 76 to 100% each time.
Take `CS(=O)(=O)c1cccc(C(=O)N2CCCc3c(O)nc(-c4ccccn4)nc32)c1` [drawing 2079]: the figures for the inhibition at 30 µM in test [1] and in test [2] were 0% and 51 to 75%, respectively.
The corresponding values for `Oc1nc(-c2ccccn2)nc2c(-c3cccc(C(F)(F)F)c3)csc12` [drawing 2265] are 76 to 100% and 76 to 100%.
In the same order, the values of `O=C(CCn1ccnc1)Nc1nc(-c2ccccn2)nc2sccc12` [drawing 2281] are 0% and 51 to 75%.
In the same order, the values of `O=C(CN1CCN(c2nc(-c3ccccn3)nc3sc(-c4ccccc4)cc23)CC1)N1CCCC1` [drawing 2143] are 76 to 100% and 76 to 100%.
In the case of `Cn1cc(C2CN(C(=O)c3csc4c(O)nc(-c5ccccn5)nc34)CCN2)cn1` (stereo not shown) [drawing 2201], the inhibition at 30 µM in test [1] and in test [2] was 76 to 100% throughout.
As for `COc1cnc(-c2cnc[nH]2)nc1O` [drawing 2343], the inhibition at 30 µM in test [1] was 0%; in test [2] it was 1 to 25%.
As for `O=C(Cc1ccc2c(c1)OCCO2)Nc1nnc(-c2ccccn2)[nH]1` [drawing 1997], the inhibition at 30 µM in test [1] is 1 to 25%; in test [2] it was 0%.
In the same order, the values of `O=C(Nc1nc(-c2ccccn2)cs1)c1ccc(F)cc1` [drawing 2020] are 26 to 50% and 26 to 50%.
In the same order, the values of `O=C(Cc1ccc2c(c1)OCO2)Nc1nnc(-c2ccccn2)[nH]1` [drawing 1996] are 1 to 25% and 26 to 50%.
The corresponding values for `O=C(Nc1nc(-c2ccccn2)cs1)c1ccc2nccnc2c1` [drawing 2011] are 0% and 51 to 75%.
In the case of `CC(Oc1ccc(C(=O)Nc2nnc(-c3ccccn3)[nH]2)cn1)c1ccccc1` (stereo not shown) [drawing 1968], the figures for the inhibition at 30 µM in test [1] and in test [2] were 0% and 1 to 25%, respectively.
Regarding `COCCNc1nc(-c2cn(C)cn2)nc2sc(C)c(-c3ccccc3)c12` [drawing 2412], the inhibition at 30 µM was in the range of 26 to 50% in test [1] and 1 to 25% in test [2].
In the same order, the values of `CC(C)COc1ccc(-c2csc3c(O)nc(-c4ccccn4)nc23)cn1` [drawing 2269] are 51 to 75% and 76 to 100%.
In the same order, the values of `O=C(Nc1nnc(-c2ccccn2)[nH]1)C1CCCN(c2cnccn2)C1` (stereo not shown) [drawing 1979] are 1 to 25% and 1 to 25%.
In the same order, the values of `COc1ccc2c(ccn2CC(=O)Nc2nnc(-c3ccccn3)[nH]2)c1` [drawing 1940] are 1 to 25% and 26 to 50%.
In the case of `CN(C)Cc1ccc(-c2csc3c(O)nc(-c4ccccn4)nc23)cc1F` [drawing 2238], the results for the inhibition at 30 µM in test [1] and in test [2] were 51 to 75% and 76 to 100%, respectively.
On to `O=C(Nc1nnc(-c2ccccn2)[nH]1)c1ccn(-c2cccc(F)c2)n1` [drawing 1938], for which the inhibition at 30 µM is 0% in test [1] and 26 to 50% in test [2].
For the compound `COc1cc2c(cc1OC)CCN(C(=O)c1csc3c(O)nc(-c4ccccn4)nc13)CC2` [drawing 2117], the inhibition at 30 µM in test [1] fell in the range of 1 to 25%; in test [2], 26 to 50%.
The corresponding values for `CCOCCC1CCN(C(=O)c2csc3c(O)nc(N)nc23)CC1` [drawing 2091] are 1 to 25% and 0%.
The corresponding values for `C[C@H](NS(=O)(=O)c1ccccc1F)C(=O)Nc1nnc(-c2ccccn2)[nH]1` [drawing 1947] are 1 to 25% and 51 to 75%.
The corresponding values for `Cn1ccnc1-c1nc(O)c2scc(-c3ccc(F)cc3F)c2n1` [drawing 2443] are 1 to 25% and 51 to 75%.
